Read-outs that look alike come from different tables or passages of the source.

In article doi:10.1101/2021.03.02.433618v2 (biorxiv, 2021) one finds IC50 data, which are given here for three molecules.

Assay [1] concerns the target T1, 3CLpro (Severe acute respiratory syndrome coronavirus 2, UniProt P0DTD1). Put plainly: biochemical.
The target of assay [2] is T1, 3CLpro. Nature of the assay: biochemical. This is another data set of the same source.

In the case of `O=c1cc(-c2ccc(O)c(-c3c(O)cc(O)c4c(=O)cc(-c5ccc(O)cc5)oc34)c2)oc2cc(O)cc(O)c12` [amentoflavone], at 3CLpro [1], the IC50 (commonly the concentration needed to halve the response being measured) stood at 143 ± 23 µM.

`O=c1cc(-c2ccc(O)c(O)c2)oc2cc(O)cc(O)c12` [luteolin] displayed an IC50 at 3CLpro [1] of 343 ± 77 µM.

Take `CC(=O)c1c(O)c(C)c(O)c(Cc2c(O)c3c(c(C(=O)/C=C/c4ccccc4)c2O)OC(C)(C)C=C3)c1O` [rottlerin]: 37 µM corresponded to half-maximal inhibition against 3CLpro [2] (IC50).
